The target of test [1] is Mitogen-activated protein kinase 10 (Homo sapiens, UniProt P53779). The experiment in a line: Dose response biochemical screening assay for inhibitors of c-Jun N-Terminal Kinase 3 (JNK3). [Related pubchem assays: 746 ].
Test [2] deals with T1, Apoptotic protease-activating factor 1 (Homo sapiens, UniProt O14727).
T1 sequence (O14727 whole entry): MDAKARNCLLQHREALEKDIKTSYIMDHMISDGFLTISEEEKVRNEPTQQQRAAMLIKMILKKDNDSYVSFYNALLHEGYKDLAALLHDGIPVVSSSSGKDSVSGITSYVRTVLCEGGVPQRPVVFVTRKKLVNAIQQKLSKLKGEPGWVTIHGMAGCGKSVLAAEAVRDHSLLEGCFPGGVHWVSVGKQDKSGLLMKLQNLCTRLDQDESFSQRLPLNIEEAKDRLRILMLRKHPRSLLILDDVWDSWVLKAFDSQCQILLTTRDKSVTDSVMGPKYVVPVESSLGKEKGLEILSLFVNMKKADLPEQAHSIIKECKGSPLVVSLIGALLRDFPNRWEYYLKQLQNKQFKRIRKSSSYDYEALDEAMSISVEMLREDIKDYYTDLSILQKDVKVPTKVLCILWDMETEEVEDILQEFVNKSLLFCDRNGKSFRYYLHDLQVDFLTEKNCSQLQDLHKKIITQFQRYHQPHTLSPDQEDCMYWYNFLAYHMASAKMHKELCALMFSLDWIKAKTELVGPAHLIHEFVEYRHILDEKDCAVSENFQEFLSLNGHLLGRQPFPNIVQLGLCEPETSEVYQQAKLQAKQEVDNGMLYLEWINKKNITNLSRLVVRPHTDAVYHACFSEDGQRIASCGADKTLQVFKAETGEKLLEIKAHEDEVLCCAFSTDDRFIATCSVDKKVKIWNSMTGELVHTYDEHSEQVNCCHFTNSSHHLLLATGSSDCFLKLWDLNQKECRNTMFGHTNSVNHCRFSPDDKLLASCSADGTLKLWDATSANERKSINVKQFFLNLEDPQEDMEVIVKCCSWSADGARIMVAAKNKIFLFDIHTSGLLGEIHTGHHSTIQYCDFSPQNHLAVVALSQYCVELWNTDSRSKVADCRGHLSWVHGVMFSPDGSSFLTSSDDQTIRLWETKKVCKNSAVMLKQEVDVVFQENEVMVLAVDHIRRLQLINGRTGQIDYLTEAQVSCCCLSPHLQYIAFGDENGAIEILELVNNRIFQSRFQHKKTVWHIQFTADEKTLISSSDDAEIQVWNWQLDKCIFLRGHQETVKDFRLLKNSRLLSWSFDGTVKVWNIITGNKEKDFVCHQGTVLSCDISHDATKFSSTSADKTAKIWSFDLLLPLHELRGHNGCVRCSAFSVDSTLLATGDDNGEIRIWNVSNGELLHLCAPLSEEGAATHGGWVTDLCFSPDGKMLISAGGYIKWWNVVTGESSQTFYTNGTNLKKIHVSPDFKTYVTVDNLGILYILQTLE
The class given is functional.

The target in test [3] is Mannose-6-phosphate isomerase (Homo sapiens, UniProt P34949). As to the kind of experiment: MPI inhibition at elevated mannose 6-phosphate – biochemical, fluorescence intensity, high mannose 6-phosphate, primary screen (AID 1220).
Sequence of Mannose-6-phosphate isomerase (P34949 whole entry): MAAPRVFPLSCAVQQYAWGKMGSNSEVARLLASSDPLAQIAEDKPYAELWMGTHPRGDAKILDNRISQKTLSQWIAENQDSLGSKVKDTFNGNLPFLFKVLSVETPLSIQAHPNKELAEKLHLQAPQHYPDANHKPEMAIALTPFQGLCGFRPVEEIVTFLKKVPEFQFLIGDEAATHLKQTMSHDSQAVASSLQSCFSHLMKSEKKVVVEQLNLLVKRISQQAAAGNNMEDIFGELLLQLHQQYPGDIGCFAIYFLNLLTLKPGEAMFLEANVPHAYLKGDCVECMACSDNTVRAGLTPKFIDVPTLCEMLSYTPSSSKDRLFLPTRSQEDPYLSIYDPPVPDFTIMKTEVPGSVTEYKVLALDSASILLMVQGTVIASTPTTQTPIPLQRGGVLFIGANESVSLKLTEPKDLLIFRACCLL
Test [4] has as its target T2, Rac GTPase-activating protein 1 (Homo sapiens, UniProt Q9H0H5).
T2 sequence (Q9H0H5 whole entry): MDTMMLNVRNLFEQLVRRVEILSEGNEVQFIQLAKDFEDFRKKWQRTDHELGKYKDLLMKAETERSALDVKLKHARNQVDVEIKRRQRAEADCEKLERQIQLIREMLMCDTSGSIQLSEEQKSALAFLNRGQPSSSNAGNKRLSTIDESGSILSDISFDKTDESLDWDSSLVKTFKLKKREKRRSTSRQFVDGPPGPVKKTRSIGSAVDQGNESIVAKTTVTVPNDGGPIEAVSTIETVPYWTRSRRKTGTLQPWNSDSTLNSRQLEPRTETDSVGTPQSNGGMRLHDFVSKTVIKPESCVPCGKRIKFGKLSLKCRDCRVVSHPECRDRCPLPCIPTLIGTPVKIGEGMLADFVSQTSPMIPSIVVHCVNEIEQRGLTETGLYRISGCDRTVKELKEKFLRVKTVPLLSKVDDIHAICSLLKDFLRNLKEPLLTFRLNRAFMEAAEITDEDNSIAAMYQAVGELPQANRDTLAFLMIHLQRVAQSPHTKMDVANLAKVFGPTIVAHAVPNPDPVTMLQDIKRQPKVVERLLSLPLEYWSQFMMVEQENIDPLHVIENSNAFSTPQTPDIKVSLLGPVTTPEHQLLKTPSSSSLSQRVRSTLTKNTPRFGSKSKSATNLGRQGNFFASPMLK
The experiment in a line: blockers of MgcRacGAP-driven Rac1 GTP hydrolysis – biochemical, ADP Hunter fluorescence, primary and confirmatory, confirmation (AID 624330). The class given is functional.

The next test deals with T3, Hexokinase HKDC1 (Homo sapiens, UniProt Q2TB90).
T3 sequence (Q2TB90 whole entry): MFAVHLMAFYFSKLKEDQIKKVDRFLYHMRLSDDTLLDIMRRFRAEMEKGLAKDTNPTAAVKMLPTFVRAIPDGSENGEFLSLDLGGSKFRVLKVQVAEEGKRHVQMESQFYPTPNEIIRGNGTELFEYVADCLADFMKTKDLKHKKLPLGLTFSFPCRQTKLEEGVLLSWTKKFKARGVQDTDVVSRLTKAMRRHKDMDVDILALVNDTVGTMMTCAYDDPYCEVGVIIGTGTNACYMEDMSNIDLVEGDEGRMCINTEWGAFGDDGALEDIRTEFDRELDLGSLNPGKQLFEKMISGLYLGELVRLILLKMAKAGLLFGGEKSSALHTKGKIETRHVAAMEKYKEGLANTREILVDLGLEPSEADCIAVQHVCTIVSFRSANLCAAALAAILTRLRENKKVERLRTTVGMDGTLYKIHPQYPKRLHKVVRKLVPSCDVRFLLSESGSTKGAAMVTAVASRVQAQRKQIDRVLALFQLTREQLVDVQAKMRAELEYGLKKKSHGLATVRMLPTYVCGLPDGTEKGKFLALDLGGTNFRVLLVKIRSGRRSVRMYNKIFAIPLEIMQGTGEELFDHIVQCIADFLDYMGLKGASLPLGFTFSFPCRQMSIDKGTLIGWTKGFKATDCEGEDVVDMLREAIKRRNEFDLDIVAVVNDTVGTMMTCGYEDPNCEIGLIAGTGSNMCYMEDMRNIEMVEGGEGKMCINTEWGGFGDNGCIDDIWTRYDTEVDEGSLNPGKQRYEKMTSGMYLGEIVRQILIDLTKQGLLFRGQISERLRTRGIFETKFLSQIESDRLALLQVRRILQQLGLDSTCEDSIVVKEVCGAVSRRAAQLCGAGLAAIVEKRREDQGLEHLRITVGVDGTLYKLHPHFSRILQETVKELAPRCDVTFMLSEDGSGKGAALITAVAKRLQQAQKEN
The experiment in a line: inhibition of HKDC1 glucose phosphorylation – biochemical, W721R variant, dose response (AID 504729). The test is classed as functional.

Test [5] addresses T4, Histone-lysine N-methyltransferase NSD2 (Homo sapiens, UniProt O96028).
T4 sequence (O96028 whole entry): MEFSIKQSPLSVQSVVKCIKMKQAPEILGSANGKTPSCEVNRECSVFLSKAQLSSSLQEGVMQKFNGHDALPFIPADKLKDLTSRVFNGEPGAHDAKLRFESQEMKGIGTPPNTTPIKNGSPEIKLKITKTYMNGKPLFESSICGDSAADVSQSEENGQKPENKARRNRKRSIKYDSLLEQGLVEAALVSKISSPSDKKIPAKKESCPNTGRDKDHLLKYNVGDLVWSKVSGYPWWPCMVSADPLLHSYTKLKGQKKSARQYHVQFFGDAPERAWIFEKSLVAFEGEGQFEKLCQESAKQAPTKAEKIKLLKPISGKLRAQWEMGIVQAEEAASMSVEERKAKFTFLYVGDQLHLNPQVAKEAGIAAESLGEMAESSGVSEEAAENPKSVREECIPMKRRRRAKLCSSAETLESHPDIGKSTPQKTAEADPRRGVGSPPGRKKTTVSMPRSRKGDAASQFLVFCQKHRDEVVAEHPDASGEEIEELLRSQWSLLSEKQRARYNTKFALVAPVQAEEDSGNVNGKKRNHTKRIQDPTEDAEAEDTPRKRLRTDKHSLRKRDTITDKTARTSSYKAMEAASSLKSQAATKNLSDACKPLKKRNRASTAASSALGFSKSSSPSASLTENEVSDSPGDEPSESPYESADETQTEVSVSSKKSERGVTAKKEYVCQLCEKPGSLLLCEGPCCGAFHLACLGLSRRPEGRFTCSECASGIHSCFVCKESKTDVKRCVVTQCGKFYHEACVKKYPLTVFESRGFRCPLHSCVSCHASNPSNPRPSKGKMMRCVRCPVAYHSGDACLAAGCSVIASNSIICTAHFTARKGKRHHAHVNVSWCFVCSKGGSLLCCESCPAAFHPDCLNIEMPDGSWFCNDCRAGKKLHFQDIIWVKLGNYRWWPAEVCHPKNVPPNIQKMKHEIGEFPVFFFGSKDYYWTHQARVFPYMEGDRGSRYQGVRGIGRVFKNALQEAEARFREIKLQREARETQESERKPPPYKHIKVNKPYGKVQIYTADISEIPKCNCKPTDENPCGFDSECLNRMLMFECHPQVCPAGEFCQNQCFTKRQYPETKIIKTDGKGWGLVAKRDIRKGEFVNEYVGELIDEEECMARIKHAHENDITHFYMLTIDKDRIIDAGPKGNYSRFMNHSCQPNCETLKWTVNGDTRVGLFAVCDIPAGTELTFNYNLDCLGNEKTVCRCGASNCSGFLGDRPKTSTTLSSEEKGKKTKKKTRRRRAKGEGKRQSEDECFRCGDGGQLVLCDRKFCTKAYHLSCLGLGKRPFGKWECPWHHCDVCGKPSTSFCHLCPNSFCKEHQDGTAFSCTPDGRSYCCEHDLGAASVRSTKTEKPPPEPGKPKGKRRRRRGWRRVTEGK
The test is classed as biochemical.

A short description of test [6]: antiviral protection against BTV-induced cell death – arbovirus, BSR cells, confirmation (AID 1250).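 Further: protection from viral cytopathic effect measured as cell viability by ATP luminescence.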 The test is classed as functional.
Test [7] deals with Bifunctional protein GlmU (Mycobacterium tuberculosis, UniProt P9WMN3). As to the kind of experiment: Inhibitors of Mycobacterial Glucosamine-1-phosphate acetyl transferase (GlmU). Secondary screen. More on the design: species or system Mycobacterium tuberculosis H37Rv.
Sequence of Bifunctional protein GlmU (P9WMN3 whole entry): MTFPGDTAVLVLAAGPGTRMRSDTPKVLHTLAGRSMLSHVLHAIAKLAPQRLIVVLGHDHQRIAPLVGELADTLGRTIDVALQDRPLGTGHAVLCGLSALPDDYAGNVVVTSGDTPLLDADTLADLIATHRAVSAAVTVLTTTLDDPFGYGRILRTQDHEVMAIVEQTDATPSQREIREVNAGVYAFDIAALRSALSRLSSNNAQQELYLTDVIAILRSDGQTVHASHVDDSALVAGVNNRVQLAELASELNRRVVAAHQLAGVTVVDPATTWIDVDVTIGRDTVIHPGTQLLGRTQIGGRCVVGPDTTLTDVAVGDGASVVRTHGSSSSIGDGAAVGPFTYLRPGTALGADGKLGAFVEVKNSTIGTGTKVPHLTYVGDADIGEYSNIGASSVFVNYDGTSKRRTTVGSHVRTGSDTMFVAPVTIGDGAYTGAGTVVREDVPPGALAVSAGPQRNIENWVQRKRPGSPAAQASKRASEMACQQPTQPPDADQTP
The target of the next test is T5, Aminopeptidase N (Plasmodium falciparum FcB1/Columbia, UniProt O96935).
T5 sequence (O96935 whole entry): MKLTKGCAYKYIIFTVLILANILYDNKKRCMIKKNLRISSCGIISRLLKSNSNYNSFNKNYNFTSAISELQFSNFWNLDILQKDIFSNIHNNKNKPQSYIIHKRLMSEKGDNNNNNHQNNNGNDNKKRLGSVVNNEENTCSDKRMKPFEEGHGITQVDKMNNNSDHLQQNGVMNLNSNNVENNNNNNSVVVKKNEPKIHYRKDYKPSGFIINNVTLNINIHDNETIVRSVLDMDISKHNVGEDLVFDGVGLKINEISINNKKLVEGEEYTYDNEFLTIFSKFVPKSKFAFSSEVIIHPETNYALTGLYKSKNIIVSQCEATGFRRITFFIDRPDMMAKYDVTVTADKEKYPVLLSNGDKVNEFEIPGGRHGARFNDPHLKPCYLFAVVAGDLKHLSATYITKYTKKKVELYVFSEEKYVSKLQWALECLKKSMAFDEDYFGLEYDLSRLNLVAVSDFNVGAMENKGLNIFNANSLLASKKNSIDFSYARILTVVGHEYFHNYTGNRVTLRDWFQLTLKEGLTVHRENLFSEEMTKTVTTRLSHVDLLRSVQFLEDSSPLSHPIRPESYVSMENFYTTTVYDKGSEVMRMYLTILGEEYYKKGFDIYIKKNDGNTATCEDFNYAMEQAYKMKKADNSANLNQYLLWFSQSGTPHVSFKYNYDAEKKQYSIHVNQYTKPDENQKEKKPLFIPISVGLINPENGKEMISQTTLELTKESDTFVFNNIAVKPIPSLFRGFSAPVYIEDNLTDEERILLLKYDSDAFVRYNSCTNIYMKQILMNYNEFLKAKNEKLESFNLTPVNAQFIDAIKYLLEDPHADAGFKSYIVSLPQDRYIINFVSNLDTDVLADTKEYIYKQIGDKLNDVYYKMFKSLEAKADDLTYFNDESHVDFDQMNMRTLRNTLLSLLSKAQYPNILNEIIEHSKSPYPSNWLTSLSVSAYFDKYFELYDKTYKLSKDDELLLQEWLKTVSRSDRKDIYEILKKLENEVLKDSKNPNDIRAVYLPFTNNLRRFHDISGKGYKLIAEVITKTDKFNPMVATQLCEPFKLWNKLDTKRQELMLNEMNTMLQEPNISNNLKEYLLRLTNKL
As to the kind of experiment: malaria alanyl aminopeptidase activity blockers – biochemical, fluorogenic H-Leu-NHMec substrate, 1536-well (AID 1445). Also on record: species or system Plasmodium falciparum 3D7, 3D7.

Test [8] has as its target Sphingosine 1-phosphate receptor 2 (Homo sapiens, UniProt O95136). The experiment in a line: Dose Response Cell Based Assay for Agonists of the S1P2 Receptor. [Related pubchem assays: 729, 736, 843 ]. The class given is functional.

Activity calls are given as the source filed them. Where only a bound is given, the exact number is not on record here.

Sequence of Mitogen-activated protein kinase 10 (P53779 whole entry): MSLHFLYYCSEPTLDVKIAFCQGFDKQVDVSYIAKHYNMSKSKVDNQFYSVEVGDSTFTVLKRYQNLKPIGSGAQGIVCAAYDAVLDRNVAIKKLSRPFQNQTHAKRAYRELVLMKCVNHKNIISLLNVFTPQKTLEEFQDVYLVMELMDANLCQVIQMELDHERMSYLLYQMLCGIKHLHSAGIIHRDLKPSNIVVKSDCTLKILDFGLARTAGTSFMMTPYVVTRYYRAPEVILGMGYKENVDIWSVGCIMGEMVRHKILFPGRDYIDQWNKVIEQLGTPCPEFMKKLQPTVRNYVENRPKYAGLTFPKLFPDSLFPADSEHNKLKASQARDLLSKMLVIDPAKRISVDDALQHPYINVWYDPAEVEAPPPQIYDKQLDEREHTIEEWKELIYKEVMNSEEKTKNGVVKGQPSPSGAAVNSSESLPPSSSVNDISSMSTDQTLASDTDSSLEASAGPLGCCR
Sequence of Sphingosine 1-phosphate receptor 2 (O95136 whole entry): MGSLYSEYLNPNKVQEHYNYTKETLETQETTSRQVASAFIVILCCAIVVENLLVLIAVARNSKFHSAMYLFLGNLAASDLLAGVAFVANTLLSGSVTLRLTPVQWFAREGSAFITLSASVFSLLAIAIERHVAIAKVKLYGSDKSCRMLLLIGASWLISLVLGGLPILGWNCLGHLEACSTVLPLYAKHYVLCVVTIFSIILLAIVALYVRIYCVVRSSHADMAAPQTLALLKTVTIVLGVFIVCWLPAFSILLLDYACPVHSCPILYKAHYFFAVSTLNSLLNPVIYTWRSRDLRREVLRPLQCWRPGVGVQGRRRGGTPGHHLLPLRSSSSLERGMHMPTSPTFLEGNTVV

As to `Cc1nn(C)cc1CNC(=O)c1cnn2c(C(F)F)cc(C3CC3)nc12`, in test [1], the IC50 (in general, the concentration that gives 50% inhibition) is listed as 26.8 µM (not active).
`CC1(C)CNc2cc(N)ccc2S1`: the IC50 was 7.45 µM (active) in test [2], > 50 µM (not active) in test [3] and 22.9 µM (active) in [4].
`COc1cc(/C=C(\C#N)c2nc3cc(C)ccc3[nH]2)cc([N+](=O)[O-])c1O`: the IC50 on Hexokinase HKDC1 is 16.1 µM (active); in [6], 24.5 µM (active); in test [7] it was 94.3 µM (active); at Aminopeptidase N, 16.2 µM (active). Besides, the AC50 (as a rule, the concentration giving half of the maximal activity seen) in test [5] is > 20 µM (inactive).
With `COC(=O)c1c[nH]nc1N=C(S)Nc1ccccc1C`, in test [8], the EC50 (commonly the concentration that produces a half-maximal response) was > 50 µM (not active).

The values above are taken from ChEMBL document CHEMBL1201862, “PubChem BioAssay data set” (2004).
